Measurements from ChEMBL document CHEMBL2010775, “Anti-proliferative effects of the novel ceramide analog (S)-2-(benzylideneamino)-3-hydroxy-N-tetrade-cylpropanamide in chemoresistant cancer” (2012).
Activity calls are given as the source filed them. The calls are words filed in the database; no cut-off is given here.

How the values were obtained:
[1] = Antiproliferative activity against human MCF-7TN-R cells assessed as decrease in Ki-67 staining after 48 hrs by immunofluorescence staining; type: functional; design: scale not given: the % may be the effect or the level left
MDA-MB-231 = assay: Antiproliferative activity against human MDA-MB-231 cells assessed as decrease in Ki-67 staining after 48 hrs by immunofluorescence staining; type: functional; design: scale not given: the % may be the effect or the level left
MDA-MB-468 = assay: Antiproliferative activity against human MDA-MB-468 cells assessed as decrease in Ki-67 staining after 48 hrs by immunofluorescence staining; type: functional; design: scale not given: the % may be the effect or the level left
Homo sapiens [2] = species on record: Homo sapiens; assay: Potentiation of etoposide-induced antiproliferative activity against human MCF-7TN-R cells after 24 hrs by MTT assay; type: functional, cell-based
Homo sapiens [3] = species on record: Homo sapiens; assay: Potentiation of doxorubicin-induced antiproliferative activity against human MCF-7TN-R cells after 24 hrs by MTT assay; type: functional, cell-based
Homo sapiens [4] = species on record: Homo sapiens; assay: Induction of apoptosis in human MCF-7TN-R cells assessed as decrease in viable cells after 48 hrs by DAPI staining method relative to control; type: functional, cell-based

What does the source list for `CCCCCCCCCCCCC/C=C/[C@@H](O)[C@H](CO)NC(=O)CCCCCCC`?
Activity [1]: 17.19%; Activity (MDA-MB-231): 46.6%; Activity (MDA-MB-468): 29.08%; Activity (Homo sapiens [2]): Active; Activity (Homo sapiens [3]): Active; Activity (Homo sapiens [4]): Active

Which Activity [1] does the source give for `CCCCCCCCCCCCCCNC(=O)[C@H](CO)/N=C/c1ccccc1` here?
Its Activity is 19.28%.

And the Activity (MDA-MB-231)?
The Activity was 74.6%.

And the Activity (MDA-MB-468)?
The Activity was 25.19%.

What about the Activity (Homo sapiens [2]) of the same compound?
Its Activity is “Active”.

And the Activity (Homo sapiens [3])?
The Activity was “Active”.

And the Activity (Homo sapiens [4])?
Its Activity is “Active”.
